Experimental data: patent US20070111956A1, “Remedy for sarcoidosis and method of treating the same” (Japan Science and Technology Agency, priority 2003, published 2007)
Structures can show the parent of a compound that is named as a salt.

Assays:
[1] = system: mice immunized three times with P. acnes; assay: Antibiotic treatment in the mouse pulmonary granuloma (sarcoidosis) model: BAL cell counts and histology; assay type: in vivo; settings: for decrease of the total number of BAL leukocytes (improved by): percentage in comparison to the control (PBS) group set at 100; for number of CD4+ BAL cells decreased by: two weeks after the third immunization, antibiotics begun before immunization, FIG. 6b
Method: Female C57BL/6J mice of 5 to 7 weeks of age were obtained from CLEA Japan (Shizuoka, Japan) or Japan SLC, Inc. (Tokyo, Japan), and kept under specific pathogen-free (SPF) conditions in the animal facility of the Department of Molecular Preventive Medicine, Graduated School of Medicine, the University of Tokyo. All animal experiments were conducted in accordance with the guidelines of the University of Tokyo.
P. acnes-sensitized CD4^+ T cells were isolated from groins of normal mice and mice immunized three times. Immunization was conducted by subcutaneous injection of 400 μg of heat-killed P. acnes (ATCC11828, American Type Culture Collection, Manassas, Va.) and Freund's complete adjuvant (Difco, Detroit, Mich.) into the footpad at 2-week intervals. CD4^+ cells were isolated with the use of MACS system (Miltenyi Biotech, Bergisch Gladbach, Germany) according to manufacturer's instructions. The purity of CD4^+ cell populations was 94% or higher, as confirmed by immunostaining flow cytometry. The isolated CD4^+ cells (2×10^6 cells/PBS 200 μl) were injected into the tail vein of normal mice, and histological analysis of the lungs was conducted two weeks after the injection.
BAL cells were collected by five injections of 0.8 ml of sterile PBS containing 2% FCS (Sigma, St. Louis, Mo.) and 2 mM EDTA. The total number of BAL leukocytes was counted with a hemocytometer. Before the analysis with EPICS Elite instrument (Beckman Coulter, Miami, Fla.), BAL cells were preincubated with rat anti-mouse CD16/CD32 (clone; 2.4G2) mAb to block FcR-mediated binding, and then incubated for […] at 4° C. with FITC-conjugated anti-CD4 (H129.19) mAb and PE-conjugated anti-CD8a (53-6.7) mAb, both from BD Pharmingen.
Minocycline hydrochloride (MINO) (Wyeth Ledele, Tokyo, Japan) and clindamycin (CLDM) (Pharmacia, Tokyo, Japan) were used. On day one, 133 μg of MINO and 1.6 mg of CLDM were administered intratrancheally (i.t.). Subsequently, the same dose of each antibiotic was injected intraperitoneally (i.p.) everyday for one week before immunization, then intraperitoneal injection was conducted three times per week. During the experiment, mice were given water containing each antibiotic at the same dose as mentioned above. Similarly, ampicillin (ABPC), cefazolin sodium (CEZ), gentamicin sulfate (GM), fosfomycin (FOM), clarithromycin (CAM) were used and single dose of these antibiotics was set by calculating the maximum amount for regular use by adults based on their body weight.

[2] = Examination for nonspecific immunosuppression (ear swelling, spleen index); assay type: in vivo, mouse; settings: in comparison to PBS control; FIG. 9
[3] = system: indigenous P. acnes in the mouse lung; assay: PCR detection of indigenous P. acnes in the mouse lung after antibiotics; assay type: in vivo, Propionibacterium acnes; settings: PBS as a control; FIG. 8
Method: Samples of 1 μg of total RNA were isolated from the lungs, and regional lymph nodes samples of the lung, the liver, the skin and the pancreas of SPF mice using Trizol (Invitrogen, Groningen, the Netherlands) according to the manufacturer's instructions. Then, RNA samples were reverse transcribed into cDNA, and amplified (J. Exp. Med. 193, 35-49, 2001; J. Clin. Invest. 102, 1933-1941, 1998). PCR products of 16s ribosomal RNA of P. acnes were electrophoresed on 2.5% agarose gel. The bands visualized by ethidium bromide staining were expected size for each mRNA product. Oligonucleotide primers for P. acnes were designed as described previously (J. Clin. Microbiol. 40, 198-204, 2002): forward, 5′-[…]-3′ (SEQ ID NO: 1); reverse, 5′-TTCCGACGCGATCAACCA-3′ (SEQ ID NO: 2). Contamination of P. acnes during the experiment was checked by buffer control. As primers for GAPDH as an internal standard, previously described ones were used (J. Exp. Med. 193, 35-49, 2001). PCR conditions: heated at 95° C. for 5 min, followed by 40 cycles of 95° C. for 30 sec, 58° C. for 60 sec, 72° C. for 60 sec, and finally heated at 72° C. for 10 min.
Minocycline hydrochloride (MINO) (Wyeth Ledele, Tokyo, Japan) and clindamycin (CLDM) (Pharmacia, Tokyo, Japan) were used. On day one, 133 μg of MINO and 1.6 mg of CLDM were administered intratrancheally (i.t.). […]

Compound: CC1(C)S[C@@H]2[C@H](NC(=O)[C@H](N)c3ccccc3)C(=O)N2[C@H]1C(=O)O [ABPC, ampicillin]
- decrease of the total number of BAL leukocytes (improved by) ([1]; FIG. 7): 46.1%

Compound: CCC[C@@H]1C[C@@H](C(=O)N[C@@H]([C@H]2O[C@H](SC)[C@H](O)[C@@H](O)[C@H]2O)[C@H](C)Cl)N(C)C1 [CLDM, clindamycin]
- size of ear swelling [2]: no marked differences
- spleen index [2]: no marked differences
- decrease of the total number of BAL leukocytes (improved by) ([1]; FIG. 7): 42.1%
- decrease of the total number of BAL leukocytes (improved by), group administered for a short period ([1]; FIG. 7, short: antibiotics initiated one month after treatment of the model (at the last immunization), versus PBS set at 100): 74.3%
- number of CD4+ BAL cells decreased by [1]: 42.1%

Compound: CC[C@H]1OC(=O)[C@H](C)[C@@H](O[C@H]2C[C@@](C)(OC)[C@@H](O)[C@H](C)O2)[C@H](C)[C@@H](O[C@@H]2O[C@H](C)C[C@H](N(C)C)[C@H]2O)[C@](C)(OC)C[C@@H](C)C(=O)[C@H](C)[C@@H](O)[C@]1(C)O [CAM, clarithromycin]
- decrease of the total number of BAL leukocytes (improved by) ([1]; FIG. 7): 48.3%

Compound: CN(C)c1ccc(O)c2c1C[C@H]1C[C@H]3[C@H](N(C)C)C(O)=C(C(N)=O)C(=O)[C@@]3(O)C(O)=C1C2=O [MINO, minocycline hydrochloride]
- size of ear swelling [2]: no marked differences
- spleen index [2]: no marked differences
- decrease of the total number of BAL leukocytes (improved by) ([1]; FIG. 7): 53.5%
- number of CD4+ BAL cells decreased by [1]: 53.5%

Compound: gentamicin sulfate [GM]
- indigenous P. acnes in the mouse lung by PCR [3]: did not decrease so much
- effect on BAL cells (FIG. 7), in words ([1]; FIG. 7, in comparison to the control (PBS) group): no effect
